We go through four sequences from patent US20070128217A1 (priority 2003, published 2007).

Experiment [1] concerns antibodies in sera from SARS patients (sera 1a, 1b, 2, 6, 37, 62, London, SARS-yellow, SARS-green). The format is binding, human. Details: Binding of serum 6 to linear peptides of protein X1 of SARS-CoV Urbani / Binding of serum 37 to linear peptides of protein X1 of SARS-CoV Urbani / Binding of serum 6 to looped/cyclic peptide (PEPSCAN-ELISA) / Binding of serum 37 to looped/cyclic peptide (PEPSCAN-ELISA) / Binding of serum 37 to looped/cyclic peptides of protein X1 of SARS-CoV Urbani / Binding of serum 6 to linear peptides of protein X2 / Binding of serum 37 to linear peptides of protein X2 / Binding of serum 37 to looped/cyclic peptides of protein X2 of SARS-CoV Urbani / Binding of serum 6 to linear peptides of protein M of SARS-CoV Urbani / Binding of serum 37 to linear peptides of protein M of SARS-CoV Urbani / Binding of serum 6 to looped/cyclic peptides of protein M of SARS-CoV Urbani / Binding of serum 37 to looped/cyclic peptides of protein M of SARS-CoV Urbani / Binding of serum 6 to linear peptides of protein X3 of SARS-CoV Urbani / Binding of serum 37 to linear peptides of protein X3 of SARS-CoV Urbani / Binding of serum 37 to looped/cyclic peptides of protein X3 of SARS-CoV Urbani / Binding of serum 6 to linear peptides of protein X4 of SARS-CoV Urbani / Binding of serum 37 to linear peptides of protein X4 of SARS-CoV Urbani / Binding of serum 37 to looped/cyclic peptides of protein X4 of SARS-CoV Urbani / Binding of serum 6 to linear peptides of protein X5 of SARS-CoV Urbani / Binding of serum 37 to linear peptides of protein X5 of SARS-CoV Urbani / Binding of serum 37 to looped/cyclic peptides of protein X5 of SARS-CoV Urbani / Binding of serum 6 to linear peptides of protein N of SARS-CoV Urbani / Binding of serum 37 to linear peptides of protein N of SARS-CoV Urbani / Binding of serum 6 to linear peptide (PEPSCAN-ELISA) / Binding of serum 1a to looped/cyclic peptides of protein N of SARS-CoV Urbani / Binding of serum 1b to looped/cyclic peptides of protein N of SARS-CoV Urbani / Binding of serum 2 to looped/cyclic peptides of protein N of SARS-CoV Urbani / Binding of serum 6 to looped/cyclic peptides of protein N of SARS-CoV Urbani / Binding of serum 37 to looped/cyclic peptides of protein N of SARS-CoV Urbani / Binding of serum 62 to looped/cyclic peptides of protein N of SARS-CoV Urbani / Binding of serum London to looped/cyclic peptides of protein N of SARS-CoV Urbani / Binding of serum SARS-green to looped/cyclic peptides of protein N of SARS-CoV Urbani: unit not given here.

Experiment [2] deals with rabbit serum obtained by immunizing a rabbit with the SARS-CoV strain Frankfurt 1. The format is binding. Details: Binding of a rabbit serum to linear peptides / Binding of a rabbit serum to looped peptides / Rabbit serum linear peptides / Rabbit serum looped peptides / Binding of a rabbit serum to linear peptides of protein N of SARS-CoV Urbani (Rabbit serum linear peptides) / Binding of a rabbit serum to looped/cyclic peptides of protein N of SARS-CoV Urbani (Rabbit serum looped peptides): unit not given here.

For experiment [3], the system named is control sera (pooled serum of ten healthy LUMC hospital workers; commercial negative donor pooled serum from the Dutch bloodbank). The format is binding, human. Details: Binding of Control serum LUMC to linear peptides / Binding of Control serum Blood-bank to linear peptides / Binding of Control serum LUMC to looped peptides / Binding of Control Serum Blood-Bank to Looped peptides / Binding of Control serum LUMC to linear peptides of the protein M of SARS-CoV Urbani / Binding of Control serum Blood-bank to linear peptides of the protein M of SARS-CoV Urbani / Binding of Control serum LUMC to looped peptides of the protein M of SARS-CoV Urbani / Binding of Control Serum Blood-Bank to Looped peptides of the protein M of SARS-CoV Urbani: unit not given here.

With VSQIQLSLLKVTAFQ, in experiment [1], the “Binding of serum 1a to linear peptides of protein X2” value was 0.5, the “Binding of serum 1a to looped/cyclic peptides of protein X2 of SARS-CoV Urbani” value turned out to be 0.5, the “Binding of serum 1b to linear peptides of protein X2” value was determined as 0.4 and the “Binding of serum 1b to looped/cyclic peptides of protein X2 of SARS-CoV Urbani” value is 0.4. In experiment [1], the “Binding of serum 2 to linear peptides of protein X2” value was found to be 0.4, the “Binding of serum 2 to looped/cyclic peptides of protein X2 of SARS-CoV Urbani” value is 0.4, the “Binding of serum 6 to linear peptides of protein X2” value is given as 0.5 and the “Binding of serum 6 to looped/cyclic peptides of protein X2 of SARS-CoV Urbani” value was 0.6. In addition, in experiment [1], the “Binding of serum 37 to linear peptides of protein X2” value is listed as 0.6, the “Binding of serum 37 to looped/cyclic peptides of protein X2 of SARS-CoV Urbani” value was 0.4, the “Binding of serum 62 to linear peptides of protein X2” value is recorded as 0.3 and the “Binding of serum 62 to looped/cyclic peptides of protein X2 of SARS-CoV Urbani” value came out at 0.6. Moreover, in experiment [1], the “Binding of serum London to linear peptides of protein X2” value was 0.3, the “Binding of serum London to looped/cyclic peptides of protein X2 of SARS-CoV Urbani” value is 0.8, the “Binding of serum SARS-green to linear peptides of protein X2” value came out at 0.1 and the “Binding of serum SARS-green to looped/cyclic peptides of protein X2 of SARS-CoV Urbani” value stood at 0.3. In experiment [1], the “Binding of serum SARS-yellow to linear peptides of protein X2” value is listed as 0.4 and the “Binding of serum SARS-yellow to looped/cyclic peptides of protein X2 of SARS-CoV Urbani” value came to 0.6. Further, in experiment [2], the “Binding of a rabbit serum to linear peptides” value was 0.6 and the “Binding of a rabbit serum to looped peptides” value was 0.4. Moreover, in experiment [3], the “Binding of Control Serum Blood-Bank to Looped peptides” value was found to be 0.6, the “Binding of Control serum Blood-bank to linear peptides” value stood at 0.5, the “Binding of Control serum LUMC to linear peptides” value is listed as 0.8 and the “Binding of Control serum LUMC to looped peptides” value was found to be 0.6.
For VTAFQHQNSKKTTKL, in experiment [1], the “Binding of serum 1a to linear peptides of protein X2” value is on record as 0.4, the “Binding of serum 1a to looped/cyclic peptides of protein X2 of SARS-CoV Urbani” value amounted to 0.4, the “Binding of serum 1b to linear peptides of protein X2” value was 0.4 and the “Binding of serum 1b to looped/cyclic peptides of protein X2 of SARS-CoV Urbani” value is listed as 0.3. In experiment [1], the “Binding of serum 2 to linear peptides of protein X2” value is recorded as 0.2, the “Binding of serum 2 to looped/cyclic peptides of protein X2 of SARS-CoV Urbani” value is given as 0.1, the “Binding of serum 6 to linear peptides of protein X2” value is reported as 0.3 and the “Binding of serum 6 to looped/cyclic peptides of protein X2 of SARS-CoV Urbani” value was determined as 0.3. Besides, in experiment [1], the “Binding of serum 37 to linear peptides of protein X2” value was found to be 0.5, the “Binding of serum 37 to looped/cyclic peptides of protein X2 of SARS-CoV Urbani” value turned out to be 0.3, the “Binding of serum 62 to linear peptides of protein X2” value turned out to be 0.3 and the “Binding of serum 62 to looped/cyclic peptides of protein X2 of SARS-CoV Urbani” value amounted to 0.5. In experiment [1], the “Binding of serum London to linear peptides of protein X2” value is on record as 0.1, the “Binding of serum London to looped/cyclic peptides of protein X2 of SARS-CoV Urbani” value is given as 0.2, the “Binding of serum SARS-green to linear peptides of protein X2” value is given as 0.1 and the “Binding of serum SARS-green to looped/cyclic peptides of protein X2 of SARS-CoV Urbani” value came out at 0.2. In experiment [1], the “Binding of serum SARS-yellow to linear peptides of protein X2” value is reported as 0.7 and the “Binding of serum SARS-yellow to looped/cyclic peptides of protein X2 of SARS-CoV Urbani” value is given as 0.5. Besides, in experiment [2], the “Binding of a rabbit serum to linear peptides” value was found to be 0.6 and the “Binding of a rabbit serum to looped peptides” value is given as 0.4. Besides, in experiment [3], the “Binding of Control Serum Blood-Bank to Looped peptides” value is reported as 0.5, the “Binding of Control serum Blood-bank to linear peptides” value was determined as 0.3, the “Binding of Control serum LUMC to linear peptides” value came to 0.5 and the “Binding of Control serum LUMC to looped peptides” value stood at 0.5.
For the sequence VTLACFVLAAVYRIN, in experiment [1], the “Binding of serum 1a to linear peptides of protein M of SARS-CoV Urbani” value came to 0.7, the “Binding of serum 1a to looped/cyclic peptides of protein M of SARS-CoV Urbani” value is listed as 0.8, the “Binding of serum 1b to linear peptides of protein M of SARS-CoV Urbani” value was found to be 0.6 and the “Binding of serum 1b to looped/cyclic peptides of protein M of SARS-CoV Urbani” value was determined as 0.6. In experiment [1], the “Binding of serum 2 to linear peptides of protein M of SARS-CoV Urbani” value is reported as 0.5, the “Binding of serum 2 to looped/cyclic peptides of protein M of SARS-CoV Urbani” value was determined as 0.6, the “Binding of serum 6 to linear peptides of protein M of SARS-CoV Urbani” value came to 0.4 and the “Binding of serum 6 to looped/cyclic peptides of protein M of SARS-CoV Urbani” value worked out at 0.8. In experiment [1], the “Binding of serum 37 to linear peptides of protein M of SARS-CoV Urbani” value worked out at 0.4, the “Binding of serum 37 to looped/cyclic peptides of protein M of SARS-CoV Urbani” value is on record as 0.7, the “Binding of serum 62 to linear peptides of protein M of SARS-CoV Urbani” value is recorded as 0.5 and the “Binding of serum 62 to looped/cyclic peptides of protein M of SARS-CoV Urbani” value amounted to 0.7. In experiment [1], the “Binding of serum London to linear peptides of protein M of SARS-CoV Urbani” value stood at 0.3, the “Binding of serum London to looped/cyclic peptides of protein M of SARS-CoV Urbani” value is 0.3, the “Binding of serum SARS-green to linear peptides of protein M of SARS-CoV Urbani” value is 0.5 and the “Binding of serum SARS-green to looped/cyclic peptides of protein M of SARS-CoV Urbani” value was found to be 0.2. In experiment [1], the “Binding of serum SARS-yellow to linear peptides of protein M of SARS-CoV Urbani” value came out at 0.1 and the “Binding of serum SARS-yellow to looped/cyclic peptides of protein M of SARS-CoV Urbani” value is given as 0.6. In experiment [2], the “Rabbit serum linear peptides” value was determined as 0.2 and the “Rabbit serum looped peptides” value is 0.3. Further, in experiment [3], the “Binding of Control Serum Blood-Bank to Looped peptides of the protein M of SARS-CoV Urbani” value is 0.8, the “Binding of Control serum Blood-bank to linear peptides of the protein M of SARS-CoV Urbani” value is listed as 0.5, the “Binding of Control serum LUMC to linear peptides of the protein M of SARS-CoV Urbani” value is reported as 0.5 and the “Binding of Control serum LUMC to looped peptides of the protein M of SARS-CoV Urbani” value was 0.7.
On to VVHGYFTEVYYQLES, for which, in experiment [1], the “Binding of serum 1a to linear peptides of protein X1 of SARS-CoV Urbani” value is listed as 0.8, the “Binding of serum 1a to looped/cyclic peptides of protein X1 of SARS-CoV Urbani” value was found to be 0.6, the “Binding of serum 1b to linear peptides of protein X1 of SARS-CoV Urbani” value turned out to be 0.7 and the “Binding of serum 1b to looped/cyclic peptides of protein X1 of SARS-CoV Urbani” value is 0.4. Moreover, in experiment [1], the “Binding of serum 2 to linear peptides of protein X1 of SARS-CoV Urbani” value was 0.4, the “Binding of serum 2 to looped/cyclic peptides of protein X1 of SARS-CoV Urbani” value is listed as 0.4, the “Binding of serum 6 to linear peptides of protein X1 of SARS-CoV Urbani” value was found to be 0.3 and the “Binding of serum 6 to looped/cyclic peptides of protein X1 of SARS-CoV Urbani” value was 0.3. Besides, in experiment [1], the “Binding of serum 37 to linear peptides of protein X1 of SARS-CoV Urbani” value is reported as 0.5, the “Binding of serum 37 to looped/cyclic peptides of protein X1 of SARS-CoV Urbani” value worked out at 0.6, the “Binding of serum 62 to linear peptides of protein X1 of SARS-CoV Urbani” value is 0.4 and the “Binding of serum 62 to looped/cyclic peptides of protein X1 of SARS-CoV Urbani” value was 0.5. For the same sequence, in experiment [1], the “Binding of serum London to linear peptides of protein X1 of SARS-CoV Urbani” value is 0.2, the “Binding of serum London to looped/cyclic peptides of protein X1 of SARS-CoV Urbani” value is 0.2, the “Binding of serum SARS-green to linear peptides of protein X1 of SARS-CoV Urbani” value is reported as 0.2 and the “Binding of serum SARS-green to looped/cyclic peptides of protein X1 of SARS-CoV Urbani” value stood at 0.2. In experiment [1], the “Binding of serum SARS-yellow to linear peptides of protein X1 of SARS-CoV Urbani” value came to 0.3 and the “Binding of serum SARS-yellow to looped/cyclic peptides of protein X1 of SARS-CoV Urbani” value is reported as 0.4. For the same sequence, in experiment [2], the “Binding of a rabbit serum to linear peptides” value stood at 0.1 and the “Binding of a rabbit serum to looped peptides” value is reported as 0.7. In addition, in experiment [3], the “Binding of Control Serum Blood-Bank to Looped peptides” value worked out at 0.4, the “Binding of Control serum Blood-bank to linear peptides” value turned out to be 0.4, the “Binding of Control serum LUMC to linear peptides” value came out at 0.8 and the “Binding of Control serum LUMC to looped peptides” value is listed as 0.6.
